Assay results published in PMC5725665, “Discovery of a Highly Selective Cell‐Active Inhibitor of the Histone Lysine Demethylases KDM2/7” (Angewandte Chemie (International Ed. in English), 2017).

Experiments:
Assay in all cases: biochemical
Design in all cases: AlphaScreen histone demethylase activity assay
JARID1A (KDM5A) = JARID1A (KDM5A) (Homo sapiens, UniProt P29375)
Excerpt: (§1) A base‐mediated 5‐endo‐trig cyclization of a C‐2‐substituted aromatic imine afforded the racemic indoline core with two adjacent stereocenters. Subsequent acylation of the indoline ring system conferred stability towards oxidation and provided a handle for modulating polarity. Finally, metal‐catalysed cross‐coupling of the aryl bromide provided access to a variety of linkers between the indoline core and pyrrolidine capping group. In total, 45 racemic compounds were synthesized, and IC50 values for inhibition of KDM2A were determined using two orthogonal enzyme activity assays: AlphaScreen25 and RapidFire MS26 (see Section S3.1 in the Supporting Information for complete inhibition data). Key structure–activity relationships are summarized below (Scheme 1 B, compounds 2–12). […] In immunofluorescence assays using HeLa cells ectopically expressing catalytically active KDM2A, a dose‐dependent increase in H3K36me2 staining was observed upon incubation with (S,S)‐6, reflecting augmented cellular H3K36me2 levels (Figure 2 A and Section S3.3). […] To profile its selectivity, (S,S)‐6 was tested for inhibitory activity against a panel of KDMs, methyllysine binding motifs, and epigenetic enzymes.

JMJD2C (KDM4C) = biological target: T1, JMJD2C (KDM4C) (Homo sapiens, UniProt Q9H3R0); conditions: read-out: KDM4C % Inhib. (10 uM)
T1 sequence (Q9H3R0 1-1056): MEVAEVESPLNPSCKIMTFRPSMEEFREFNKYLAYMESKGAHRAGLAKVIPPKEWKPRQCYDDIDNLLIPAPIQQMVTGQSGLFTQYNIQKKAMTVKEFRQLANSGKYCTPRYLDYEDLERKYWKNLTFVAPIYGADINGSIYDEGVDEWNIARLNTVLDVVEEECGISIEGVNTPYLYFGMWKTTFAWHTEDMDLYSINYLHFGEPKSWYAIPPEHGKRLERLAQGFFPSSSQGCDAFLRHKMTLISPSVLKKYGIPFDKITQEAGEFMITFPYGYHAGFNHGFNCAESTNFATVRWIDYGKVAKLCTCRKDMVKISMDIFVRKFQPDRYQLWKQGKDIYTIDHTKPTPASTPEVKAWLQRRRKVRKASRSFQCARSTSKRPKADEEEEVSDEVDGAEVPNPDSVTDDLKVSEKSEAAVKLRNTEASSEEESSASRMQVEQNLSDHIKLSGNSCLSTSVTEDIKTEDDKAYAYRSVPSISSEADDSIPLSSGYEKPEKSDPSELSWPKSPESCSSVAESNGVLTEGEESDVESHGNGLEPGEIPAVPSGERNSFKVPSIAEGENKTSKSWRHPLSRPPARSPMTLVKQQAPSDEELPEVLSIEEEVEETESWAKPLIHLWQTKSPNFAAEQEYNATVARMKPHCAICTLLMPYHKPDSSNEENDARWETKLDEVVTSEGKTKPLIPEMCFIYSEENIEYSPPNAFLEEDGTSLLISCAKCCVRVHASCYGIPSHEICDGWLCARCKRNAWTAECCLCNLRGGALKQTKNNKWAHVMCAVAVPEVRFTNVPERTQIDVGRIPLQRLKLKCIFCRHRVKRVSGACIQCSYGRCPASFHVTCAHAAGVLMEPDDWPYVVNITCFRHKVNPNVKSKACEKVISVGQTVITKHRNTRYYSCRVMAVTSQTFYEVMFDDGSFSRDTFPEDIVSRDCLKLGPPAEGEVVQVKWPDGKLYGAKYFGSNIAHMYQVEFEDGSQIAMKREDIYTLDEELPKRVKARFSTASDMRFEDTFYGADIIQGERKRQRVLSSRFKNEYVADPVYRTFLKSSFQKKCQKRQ
Excerpt: as §1

JMJD2D (KDM4D) = biological target: T2, JMJD2D (KDM4D) (Homo sapiens, UniProt Q6B0I6)
T2 sequence (Q6B0I6 1-523): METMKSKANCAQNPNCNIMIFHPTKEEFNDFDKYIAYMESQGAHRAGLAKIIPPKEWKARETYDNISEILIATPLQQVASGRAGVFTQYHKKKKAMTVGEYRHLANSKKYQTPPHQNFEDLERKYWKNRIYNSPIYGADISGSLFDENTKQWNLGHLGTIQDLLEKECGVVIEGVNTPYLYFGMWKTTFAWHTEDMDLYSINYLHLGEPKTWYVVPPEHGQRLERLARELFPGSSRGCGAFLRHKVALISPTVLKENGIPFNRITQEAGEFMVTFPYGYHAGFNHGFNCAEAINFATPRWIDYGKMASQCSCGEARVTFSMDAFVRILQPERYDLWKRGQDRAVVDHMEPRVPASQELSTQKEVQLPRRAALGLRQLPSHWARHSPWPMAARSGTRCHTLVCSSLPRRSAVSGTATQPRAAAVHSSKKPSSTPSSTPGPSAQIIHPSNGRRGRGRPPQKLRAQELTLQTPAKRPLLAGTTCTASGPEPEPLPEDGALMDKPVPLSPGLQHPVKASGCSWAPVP
Excerpt: as §1

JMJD2A (KDM4A) = biological target: T3, JMJD2A (KDM4A) (Homo sapiens, UniProt O75164); conditions: read-out: KDM4A % Inhib. (10 uM)
T3 sequence (O75164 1-1064): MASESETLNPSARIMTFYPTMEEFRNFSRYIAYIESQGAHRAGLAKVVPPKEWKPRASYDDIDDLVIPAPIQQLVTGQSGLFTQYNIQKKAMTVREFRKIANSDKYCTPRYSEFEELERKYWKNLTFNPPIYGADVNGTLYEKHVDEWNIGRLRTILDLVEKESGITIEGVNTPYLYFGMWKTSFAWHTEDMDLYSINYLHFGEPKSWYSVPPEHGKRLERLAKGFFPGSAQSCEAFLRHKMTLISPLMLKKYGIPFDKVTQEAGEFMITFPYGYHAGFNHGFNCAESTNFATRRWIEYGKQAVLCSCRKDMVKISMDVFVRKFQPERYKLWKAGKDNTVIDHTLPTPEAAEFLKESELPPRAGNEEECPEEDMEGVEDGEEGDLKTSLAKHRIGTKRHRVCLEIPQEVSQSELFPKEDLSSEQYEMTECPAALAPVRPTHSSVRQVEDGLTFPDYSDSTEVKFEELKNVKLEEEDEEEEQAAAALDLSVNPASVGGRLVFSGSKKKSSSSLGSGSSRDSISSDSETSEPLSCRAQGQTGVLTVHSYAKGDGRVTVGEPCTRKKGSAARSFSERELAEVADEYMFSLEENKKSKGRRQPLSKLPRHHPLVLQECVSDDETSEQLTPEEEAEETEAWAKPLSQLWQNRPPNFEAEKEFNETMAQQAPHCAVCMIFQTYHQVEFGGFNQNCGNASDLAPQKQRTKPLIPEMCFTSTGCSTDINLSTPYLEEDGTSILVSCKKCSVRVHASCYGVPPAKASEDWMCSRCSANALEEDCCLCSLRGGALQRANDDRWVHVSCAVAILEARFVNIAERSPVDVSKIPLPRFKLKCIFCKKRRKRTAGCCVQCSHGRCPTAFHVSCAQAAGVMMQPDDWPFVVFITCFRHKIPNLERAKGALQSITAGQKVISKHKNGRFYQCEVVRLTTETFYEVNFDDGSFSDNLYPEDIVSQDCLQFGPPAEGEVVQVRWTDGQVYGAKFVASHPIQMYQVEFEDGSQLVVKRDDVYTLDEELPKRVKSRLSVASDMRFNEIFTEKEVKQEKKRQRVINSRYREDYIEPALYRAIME

JARID1C (KDM5C) = JARID1C (KDM5C) (Homo sapiens, UniProt P41229)
Excerpt: as §1

JMJD1A (KDM3A) = biological target: T4, JMJD1A (KDM3A) (Homo sapiens, UniProt Q9Y4C1)
T4 sequence (Q9Y4C1 1-1321): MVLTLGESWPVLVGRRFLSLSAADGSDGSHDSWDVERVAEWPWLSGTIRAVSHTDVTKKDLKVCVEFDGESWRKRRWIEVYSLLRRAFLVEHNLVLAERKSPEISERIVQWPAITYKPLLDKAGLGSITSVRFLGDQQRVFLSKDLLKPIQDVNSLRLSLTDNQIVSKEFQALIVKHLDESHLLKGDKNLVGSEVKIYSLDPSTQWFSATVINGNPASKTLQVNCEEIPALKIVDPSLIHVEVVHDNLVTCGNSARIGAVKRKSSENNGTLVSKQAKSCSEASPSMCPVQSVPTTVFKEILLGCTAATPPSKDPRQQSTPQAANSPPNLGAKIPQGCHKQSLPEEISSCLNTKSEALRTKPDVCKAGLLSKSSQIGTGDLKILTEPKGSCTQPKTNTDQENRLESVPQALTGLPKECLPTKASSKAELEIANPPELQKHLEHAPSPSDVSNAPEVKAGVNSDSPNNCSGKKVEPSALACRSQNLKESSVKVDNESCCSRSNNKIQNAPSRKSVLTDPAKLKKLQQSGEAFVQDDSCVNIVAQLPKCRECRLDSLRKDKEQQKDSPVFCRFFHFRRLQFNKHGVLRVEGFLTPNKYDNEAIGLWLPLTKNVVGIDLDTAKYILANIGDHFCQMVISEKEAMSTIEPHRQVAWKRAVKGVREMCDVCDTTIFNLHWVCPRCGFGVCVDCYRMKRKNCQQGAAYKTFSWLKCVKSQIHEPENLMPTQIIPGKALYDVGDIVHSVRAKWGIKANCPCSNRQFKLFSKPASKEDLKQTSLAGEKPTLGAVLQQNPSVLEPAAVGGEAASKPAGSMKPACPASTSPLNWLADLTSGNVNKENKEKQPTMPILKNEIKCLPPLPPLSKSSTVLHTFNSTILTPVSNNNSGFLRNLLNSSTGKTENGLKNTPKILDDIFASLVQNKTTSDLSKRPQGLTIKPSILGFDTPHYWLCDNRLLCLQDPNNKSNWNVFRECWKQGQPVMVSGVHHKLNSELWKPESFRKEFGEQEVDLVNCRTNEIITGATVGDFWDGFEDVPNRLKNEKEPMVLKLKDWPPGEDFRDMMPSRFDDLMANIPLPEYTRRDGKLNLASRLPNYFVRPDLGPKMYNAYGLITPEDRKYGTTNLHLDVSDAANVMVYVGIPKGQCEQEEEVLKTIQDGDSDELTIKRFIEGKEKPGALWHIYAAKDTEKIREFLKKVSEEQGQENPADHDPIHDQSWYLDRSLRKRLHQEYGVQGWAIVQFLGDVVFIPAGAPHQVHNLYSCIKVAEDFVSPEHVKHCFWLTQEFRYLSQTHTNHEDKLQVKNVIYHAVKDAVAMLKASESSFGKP
Excerpt: as §1

Sequence of JARID1A (KDM5A) (P29375 whole entry): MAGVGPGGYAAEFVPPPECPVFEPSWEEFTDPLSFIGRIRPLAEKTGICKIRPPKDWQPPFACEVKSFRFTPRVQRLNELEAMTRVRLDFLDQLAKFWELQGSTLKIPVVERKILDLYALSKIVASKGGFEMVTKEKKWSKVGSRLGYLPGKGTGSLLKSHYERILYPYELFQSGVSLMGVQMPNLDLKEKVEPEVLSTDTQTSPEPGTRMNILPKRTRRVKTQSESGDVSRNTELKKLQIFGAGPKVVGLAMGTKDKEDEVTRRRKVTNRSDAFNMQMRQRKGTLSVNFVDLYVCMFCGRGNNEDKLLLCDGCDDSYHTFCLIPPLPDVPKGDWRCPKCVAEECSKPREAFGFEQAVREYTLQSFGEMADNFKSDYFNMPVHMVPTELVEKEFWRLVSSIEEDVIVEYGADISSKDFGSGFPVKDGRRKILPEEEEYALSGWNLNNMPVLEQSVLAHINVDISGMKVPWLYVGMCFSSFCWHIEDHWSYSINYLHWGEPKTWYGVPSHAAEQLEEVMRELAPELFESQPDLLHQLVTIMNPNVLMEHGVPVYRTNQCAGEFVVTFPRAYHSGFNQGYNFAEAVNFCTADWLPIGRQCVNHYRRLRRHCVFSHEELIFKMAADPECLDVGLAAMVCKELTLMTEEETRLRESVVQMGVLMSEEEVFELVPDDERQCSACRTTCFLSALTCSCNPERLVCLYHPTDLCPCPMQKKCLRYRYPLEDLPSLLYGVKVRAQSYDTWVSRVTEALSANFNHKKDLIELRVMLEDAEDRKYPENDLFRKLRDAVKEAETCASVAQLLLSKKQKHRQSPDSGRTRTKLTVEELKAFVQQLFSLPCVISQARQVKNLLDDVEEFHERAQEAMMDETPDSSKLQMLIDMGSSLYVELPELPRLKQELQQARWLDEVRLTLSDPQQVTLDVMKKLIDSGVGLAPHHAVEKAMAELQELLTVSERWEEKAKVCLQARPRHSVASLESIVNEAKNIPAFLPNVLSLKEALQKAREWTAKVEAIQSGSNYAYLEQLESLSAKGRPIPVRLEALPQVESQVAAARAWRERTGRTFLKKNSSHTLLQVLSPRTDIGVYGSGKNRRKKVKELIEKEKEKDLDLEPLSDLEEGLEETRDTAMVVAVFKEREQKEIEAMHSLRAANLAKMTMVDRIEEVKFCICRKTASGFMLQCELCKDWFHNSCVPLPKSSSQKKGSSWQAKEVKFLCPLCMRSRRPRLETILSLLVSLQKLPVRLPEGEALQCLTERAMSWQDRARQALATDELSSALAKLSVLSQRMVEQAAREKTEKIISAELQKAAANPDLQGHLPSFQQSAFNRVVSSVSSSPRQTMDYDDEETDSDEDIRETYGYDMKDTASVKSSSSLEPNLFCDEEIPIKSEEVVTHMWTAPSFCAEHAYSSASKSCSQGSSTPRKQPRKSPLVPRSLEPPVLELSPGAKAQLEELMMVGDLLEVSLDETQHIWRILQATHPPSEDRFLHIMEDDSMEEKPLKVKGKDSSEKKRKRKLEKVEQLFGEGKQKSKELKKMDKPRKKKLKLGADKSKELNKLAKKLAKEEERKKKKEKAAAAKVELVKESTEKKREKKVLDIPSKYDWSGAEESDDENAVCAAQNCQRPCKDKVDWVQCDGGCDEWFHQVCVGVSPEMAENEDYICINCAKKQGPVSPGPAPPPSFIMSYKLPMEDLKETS
Sequence of JARID1C (KDM5C) (P41229 whole entry): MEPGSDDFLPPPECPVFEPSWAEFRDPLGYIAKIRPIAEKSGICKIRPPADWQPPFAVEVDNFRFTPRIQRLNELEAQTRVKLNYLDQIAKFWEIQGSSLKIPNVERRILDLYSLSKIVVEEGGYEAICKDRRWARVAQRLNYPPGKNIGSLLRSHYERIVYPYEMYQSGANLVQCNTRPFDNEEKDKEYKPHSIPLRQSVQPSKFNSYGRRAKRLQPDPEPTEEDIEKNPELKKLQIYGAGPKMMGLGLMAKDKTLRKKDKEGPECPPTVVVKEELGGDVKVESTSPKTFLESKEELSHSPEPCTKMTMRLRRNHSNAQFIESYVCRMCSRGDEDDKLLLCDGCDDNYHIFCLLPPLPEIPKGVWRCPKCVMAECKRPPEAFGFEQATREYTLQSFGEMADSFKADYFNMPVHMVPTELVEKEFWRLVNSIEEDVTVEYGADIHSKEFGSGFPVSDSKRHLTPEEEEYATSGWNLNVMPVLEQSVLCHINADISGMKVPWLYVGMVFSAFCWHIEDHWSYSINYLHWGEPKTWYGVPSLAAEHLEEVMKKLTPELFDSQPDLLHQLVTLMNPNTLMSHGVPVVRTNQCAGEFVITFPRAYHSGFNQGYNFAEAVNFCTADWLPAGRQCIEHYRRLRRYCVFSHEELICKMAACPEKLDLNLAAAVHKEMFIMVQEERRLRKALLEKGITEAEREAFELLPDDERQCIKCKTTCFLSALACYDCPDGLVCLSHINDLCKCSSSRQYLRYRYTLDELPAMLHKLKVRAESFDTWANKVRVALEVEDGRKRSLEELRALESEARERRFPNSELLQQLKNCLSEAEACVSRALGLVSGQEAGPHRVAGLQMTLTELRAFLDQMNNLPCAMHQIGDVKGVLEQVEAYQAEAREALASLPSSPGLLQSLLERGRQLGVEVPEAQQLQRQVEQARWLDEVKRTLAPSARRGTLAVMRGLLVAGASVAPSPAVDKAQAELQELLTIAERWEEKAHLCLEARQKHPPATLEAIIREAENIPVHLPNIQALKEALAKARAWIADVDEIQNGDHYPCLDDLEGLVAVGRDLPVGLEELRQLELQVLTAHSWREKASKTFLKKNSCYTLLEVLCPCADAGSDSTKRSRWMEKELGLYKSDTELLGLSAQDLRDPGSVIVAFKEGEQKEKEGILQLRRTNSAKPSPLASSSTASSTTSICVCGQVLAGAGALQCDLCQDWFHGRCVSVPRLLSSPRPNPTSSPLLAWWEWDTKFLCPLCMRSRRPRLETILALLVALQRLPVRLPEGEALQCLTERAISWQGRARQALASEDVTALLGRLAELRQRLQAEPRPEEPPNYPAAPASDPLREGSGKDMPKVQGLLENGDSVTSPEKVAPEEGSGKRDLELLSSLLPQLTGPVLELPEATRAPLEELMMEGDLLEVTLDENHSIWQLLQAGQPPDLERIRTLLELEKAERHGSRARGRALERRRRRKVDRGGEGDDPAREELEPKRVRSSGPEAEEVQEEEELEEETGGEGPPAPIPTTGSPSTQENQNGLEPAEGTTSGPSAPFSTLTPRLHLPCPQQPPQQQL

inhibition at 50 µM (JARID1A (KDM5A))	inhibition at 10 µM (JMJD2C (KDM4C))	inhibition at 10 µM (JMJD2D (KDM4D))	inhibition at 10 µM (JMJD2A (KDM4A))	inhibition at 100 µM (JARID1C (KDM5C))	inhibition at 100 µM (JMJD1A (KDM3A))	Compound
46.6%	32.3%	14.4%	24.4%	–	–	CC(=O)N1c2ccccc2C(C#N)(c2ccccc2)C1c1ccc(CCCCCCCN2CCCC2)o1 (stereo not shown) [compound 138, 138]
39.1%	–	–	–	32.3%	15.1 ± 9.5%	CC(=O)N1c2ccccc2[C@](C#N)(c2ccccc2)[C@H]1c1cncc(/C=C/CCCCCN2CCCC2)c1 (racemic) [compound 5, 5]
39.5%	–	–	–	46.7%	21.1%	CC(=O)N1c2ccccc2C(C#N)(c2ccccc2)C1c1cncc(-c2cn(CCCCCN3CCCC3)nn2)c1 (stereo not shown) [compound 119, 119]
